In patent US20240060146A1, “CHEMICAL SUBSTANCE EVALUATION SYSTEM USING MULTICOLOR LIGHT-EMITTING CELLS” (TOHOKU UNIVERSITY, priority 2020, published 2024):
Where a name gives a salt, the structure may show the parent alone.

Legend:
Format in all cases: cell-based
2H4 cells [1] = assay: IL-2 Luc assay: evaluation of chemical substance in 2H4 cells; settings: for IL-2 Luc Assay: 1 h chemical, then PMA/ionomycin, luminescence after six hours, class from Min % suppression of nIL2LA
Experimental: (§1) 2H4 cells were established from Jurkat cells according to the method described in PTL 1. First, for the preparation of 2H4 cells, a plasmid having SLG introduced downstream of the IL-2 promoter, a plasmid having SLR introduced downstream of the G3PDH promoter, and a plasmid having SLO introduced downstream of the INF-γ promoter were prepared as internal standards. These plasmids contained a resistance gene for hygromycin B, puromycin, and neomycin downstream of SLG, SLR, and SLO, respectively. The conditions for drug selection after transfection of the host Jurkat cells were as follows: in the primary selection, the cells were cultured for 1 week in the presence of a drug. In the secondary selection culture, the cells that survived in the primary selection culture were seeded in a 96-well plate at 1 cell/well or 200 cells/well, and cultured for 2 weeks under the same drug conditions. After the secondary selection culture, the cells were subjected to clone selection from the two points of signal intensity and signal induction by drug treatment. The G3PDH promoter SLR was first introduced to establish monochromatic stable cell line Jurkat: G3PDH-SLR #14D1 cells. These cells were used as the parent cell line to introduce the INF-γ promoter SLO, thereby establishing bichromatic stable cell line Jurkat: INFγ-SLO/G3PDH-SLR #2B12 cells. Subsequently, the obtained cells were used as a parent cell line to introduce the IL-2 promoter SLG, thereby establishing trichromatic stable cell line Jurkat IL-2-SLG/INFγ-SLO/G3PDH-SLR #2H4 cells.
(§2) % suppression={(nIL2LA in 2H4 cells untreated with a chemical substance)−(nIL2LA in 2H4 cells treated with a chemical substance)}×100/(nIL2LA in 2H4 cells untreated with a chemical substance) ---(1) Inh-GAPLA=(GAPLA in 2H4 cells treated with a chemical substance)/(GAPLA in 2H4 cells untreated with a chemical substance) ---(2)
The chemical substances listed in Table 1 were evaluated using 2H4 cells. 2H4 cells were seeded in a 96-well plate at 2×10^5 cells/50 μl/well and treated with each chemical substance for 1 hour, followed by incubating the cells with 25 nM PMA and 1 µM ionomycin […]. After six hours from the treatment with PMA and ionomycin, Tripluc: Assay Reagent (manufactured by Toyobo Co., Ltd.) was added, and the amount of luminescence was measured with a Phelios microplate luminometer (manufactured by Atto Corporation). For control, 2H4 cells untreated with a chemical substance were also examined in the same manner. The amount of luminescence of SLG luciferase activity (IL2LA), SLR luciferase activity (GAPLA), and SLO luciferase activity (IFNLA) was measured, and IL-2LA and IFNLA were each normalized by GAPLA and determined to be nIL2LA and nIFNLA, respectively. Thereafter, for the concentration of each chemical substance, the value of suppression was calculated according to formula (1) above, and the chemical substances were evaluated by using their minimum value (Min suppression).

2H4 cells [2] = assay: IL-2 Luc LTT: evaluation of chemical substance in 2H4 cells; settings: for IL-2 Luc LTT: 1 h chemical, then 25 nM PMA and 1 μM ionomycin 24 h, class from Min % suppression (nIL2LA) and Min Inh-GAPLA
Experimental: as §1
The chemical substances listed in Table 1 were evaluated using 2H4 cells. 2H4 cells were seeded in a 96-well plate at 1×10^4/well and treated with each chemical substance for 1 hour, followed by incubating the cells with 25 nM PMA and 1 μM ionomycin for 24 hours. After 24 hours from the treatment with PMA and ionomycin, Tripluck Assay Reagent (manufactured by Toyobo Co., Ltd.) was added, and the amount of luminescence was measured with a Phelios microplate luminometer (manufactured by Atto Corporation). For control, 2H4 cells untreated with a chemical substance were also examined in the same manner. The amount of luminescence of SLG luciferase activity (IL2LA), SLR luciferase activity (GAPLA), and SLO luciferase activity (IFNLA) was measured, and IL-2LA and IFNLA were each normalized by GAPLA and determined to be nIL2LA and nIFNLA, respectively. Thereafter, for the concentration of each chemical substance, “% suppression” and “Inh-GAPLA” were determined according to the following formulas (1) and (2), and the chemical substances were evaluated by using their minimum value (Min % suppression, Min Inh-GAPLA).
In the evaluation, for control, PMA/ionomycin-treated 2H4 cells and PMA/ionomycin-untreated 2H4 cells were also measured for nIL2LA.
as §2

2H4 cells [3] = assay: Evaluation of combination of IL-2 Luc LTT and IL-2 Luc assay; parameters: key: Positive (Pos): If the result is either LCT in the IL-2 Luc LTT or S in the IL-2 Luc assay, or both, the chemical substance is determined to be an immunosuppressive substance.; Negative (Neg): In the case other than the above, the chemical substance is determined to be a non-immunosuppressive substance; settings: LCT in IL-2 Luc LTT or S in IL-2 Luc assay = Pos
Experimental: Positive (Pos): If the result is either LCT in the IL-2 Luc LTT or S in the IL-2 Luc assay, or both, the chemical substance is determined to be an immunosuppressive substance. Negative (Neg): In the case other than the above, the chemical substance is determined to be a non-immunosuppressive substance.

Structure (SMILES)	IL-2 Luc Assay (2H4 cells [1])	IL-2 Luc LTT (2H4 cells [2])	Evaluation of Combination (2H4 cells [3])	determination by the IL-2 Luc assay alone (in words) (2H4 cells [1])	determination in IL-2 Luc LTT (in words) (2H4 cells [2])
Nc1ccn([C@@H]2O[C@H](CO)[C@@H](O)C2(F)F)c(=O)n1 [Gemcitabine hydrochloride]	N (−35<Min % suppression <35: No Effect (denoted as “N”; determined to not affect immunity))	NLCT	Pos		
CS(=O)(=O)Nc1cc2occ(NC=O)c(=O)c2cc1Oc1ccccc1 [Igratimod]	S (Min %; suppression ≥35: Suppression (denoted as “S”; determined to have immunosuppressive action))	NLCT	Pos		
NNC(=O)c1ccncc1 [Isoniazid]	N (−35<Min % suppression <35: No Effect (denoted as “N”; determined to not affect immunity))	I (−35<Min % suppression <35 and 0.7≤Min Inh-GAPLA: Inconclusive (denoted as “I”; possibly not measurable due to low water solubility))	Neg		
Cc1c(OCC(F)(F)F)ccnc1C[S+]([O-])c1nc2ccccc2[nH]1 (centres unmarked) [Lansoprazole]	S (Min %; suppression ≥35: Suppression (denoted as “S”; determined to have immunosuppressive action))	NLCT	Pos		
Cc1oncc1C(=O)Nc1ccc(C(F)(F)F)cc1 [Leflunomide]	S (Min %; suppression ≥35: Suppression (denoted as “S”; determined to have immunosuppressive action))	NLCT	Pos		
O=C([O-])[O-].[Li+].[Li+] [Lithium carbonate]	N (−35<Min % suppression <35: No Effect (denoted as “N”; determined to not affect immunity))	I (−35<Min % suppression <35 and 0.7≤Min Inh-GAPLA: Inconclusive (denoted as “I”; possibly not measurable due to low water solubility))	Neg		
OC[C@@H](O)[C@@H](O)[C@H](O)[C@H](O)CO [Mannitol]	N (−35<Min % suppression <35: No Effect (denoted as “N”; determined to not affect immunity))	I (−35<Min % suppression <35 and 0.7≤Min Inh-GAPLA: Inconclusive (denoted as “I”; possibly not measurable due to low water solubility))	Neg		
CN(Cc1cnc2nc(N)nc(N)c2n1)c1ccc(C(=O)N[C@@H](CCC(=O)O)C(=O)O)cc1 [Methotrexate (MTX), Methotrexate]	N (−35<Min % suppression <35: No Effect (denoted as “N”; determined to not affect immunity))	NLCT	Neg		
CN(C)c1ccc(O)c2c1C[C@H]1C[C@H]3[C@H](N(C)C)C(O)=C(C(N)=O)C(=O)[C@@]3(O)C(O)=C1C2=O [Minocycline (MC), Minocycline]	S (Min %; suppression ≥35: Suppression (denoted as “S”; determined to have immunosuppressive action))	NLCT	Pos		
NC(=O)c1ncn([C@@H]2O[C@H](CO)[C@@H](O)[C@H]2O)c1O [Mizoribine (MZR), Mizoribine]	N (−35<Min % suppression <35: No Effect (denoted as “N”; determined to not affect immunity))	LCT (Min % suppression ≤−35 and Min Inh-GAPLA <0.7: Leukocyte toxic (denoted as “LCT”; determined to have cell growth inhibition action and/or metabolic activity inhibition action))	Pos	determined to not have imnunosuppressive action	inhibit cell growth and/or metabolic activity
COc1c(C)c2c(c(O)c1C/C=C(\C)CCC(=O)O)C(=O)OC2 [Mycophenolic acid (MPA), Mycophenolic acid]	A (Min suppression ≤−35: Augmentation (denoted as “A”; determined to have immunoaugmenting action))	LCT (Min % suppression ≤−35 and Min Inh-GAPLA <0.7: Leukocyte toxic (denoted as “LCT”; determined to have cell growth inhibition action and/or metabolic activity inhibition action))	Pos	determined to not have imnunosuppressive action	inhibit cell growth and/or metabolic activity
NC(=O)c1cccnc1 [Nicotinamide (NA), Nicotinamide]	A (Min suppression ≤−35: Augmentation (denoted as “A”; determined to have immunoaugmenting action))	LCT (Min % suppression ≤−35 and Min Inh-GAPLA <0.7: Leukocyte toxic (denoted as “LCT”; determined to have cell growth inhibition action and/or metabolic activity inhibition action))	Pos		
CC(=O)O[C@H]1C(=O)[C@@]2(C)[C@H]([C@H](OC(=O)c3ccccc3)[C@]3(O)C[C@H](OC(=O)[C@H](O)[C@@H](NC(=O)c4ccccc4)c4ccccc4)C(C)=C1C3(C)C)[C@]1(OC(C)=O)CO[C@@H]1C[C@@H]2O [Paclitaxel]	S (Min %; suppression ≥35: Suppression (denoted as “S”; determined to have immunosuppressive action))	LCT (Min % suppression ≤−35 and Min Inh-GAPLA <0.7: Leukocyte toxic (denoted as “LCT”; determined to have cell growth inhibition action and/or metabolic activity inhibition action))	Pos		
Cc1ccc(=O)n(-c2ccccc2)c1 [Pirfenidone]	S (Min %; suppression ≥35: Suppression (denoted as “S”; determined to have immunosuppressive action))	I (−35<Min % suppression <35 and 0.7≤Min Inh-GAPLA: Inconclusive (denoted as “I”; possibly not measurable due to low water solubility))	Pos		
CC[C@H](C)C(=O)O[C@H]1C[C@H](O)C=C2C=C[C@H](C)[C@H](CC[C@@H](O)C[C@@H](O)CC(=O)O)[C@H]21 [Pravastatin]	N (−35<Min % suppression <35: No Effect (denoted as “N”; determined to not affect immunity))	I (−35<Min % suppression <35 and 0.7≤Min Inh-GAPLA: Inconclusive (denoted as “I”; possibly not measurable due to low water solubility))	Neg		
CO[C@H]1C[C@@H]2CC[C@@H](C)[C@@](O)(O2)C(=O)C(=O)N2CCCC[C@H]2C(=O)O[C@H]([C@H](C)C[C@@H]2CC[C@@H](O)[C@H](OC)C2)CC(=O)[C@H](C)/C=C(\C)[C@@H](O)[C@@H](OC)C(=O)[C@H](C)C[C@H](C)/C=C/C=C/C=C/1C [Rapamycin (RPM), Rapamycin]	N (−35<Min % suppression <35: No Effect (denoted as “N”; determined to not affect immunity))	LCT (Min % suppression ≤−35 and Min Inh-GAPLA <0.7: Leukocyte toxic (denoted as “LCT”; determined to have cell growth inhibition action and/or metabolic activity inhibition action))	Pos		inhibit cell growth and/or metabolic activity
Cc1cn([C@H]2C[C@H](N=[N+]=[N-])[C@@H](CO)O2)c(=O)[nH]c1=O [Retrovir]	A (Min suppression ≤−35: Augmentation (denoted as “A”; determined to have immunoaugmenting action))	NLCT	Pos		
